Here are results for 1 substance from patent publication US20260043793A1, “MICROFLUIDIC CELL SPHEROIDS AND ORGANOIDS CULTURE INSERT FOR DISEASE MODELING AND SCREENING OF THERAPEUTICS” (APRICELL BIOTECHNOLOGY INC., priority 2022, published 2026).

Type in all cases: cell-based
The test system of assay [1] is U251 cell spheroids or organoids. The assay is described as follows: Effect of recombinant Reelin on viability of U251 spheroids (live-dead). The settings on record: increasing Reelin concentration from 1 to 100 nM. As to the method: (§1) The effect of recombinant Reelin on viability of the U251 cell spheroids or organoids was studied. It was tested with 2 different concentrations of Reelin (1 and 100 nM) on cell spheroids or organoids in the device 10 or the sector 20. Moreover, to study the invasive behavior of the resistant and non-resistant cell spheroids or organoids, they were embedded in Collagen/HA hydrogel. The method of cell spheroids or organoid embedding in the hydrogel is similar to that disclosed in example 1. In this study, the effect of Reelin protein in combination with ECM hydrogel on invasiveness of the cell spheroids or organoids and their invasion length using Vimentin immunostaining and florescent microscopy respectively was studied.
It is shown in live-dead fluorescent images by increasing the number of red cells stained with Propodeum iodide (PI) compared to the green cells stained with calcein AM after treatment with 100 nM Reelin.

A further assay has as its system vimentin surface marker. The assay is described as follows: Vimentin immunostaining of U251 spheroids (resistant and non-resistant) in collagen/HA ECM. The settings on record: 10 nm of Reelin, non-resistant in comparison to resistant spheroids. From the text: The effect of recombinant Reelin on viability of the U251 cell spheroids or organoids was studied. […] Moreover, to study the invasive behavior of the resistant and non-resistant cell spheroids or organoids, they were embedded in Collagen/HA hydrogel. The method of cell spheroids or organoid embedding in the hydrogel is similar to that disclosed in example 1. In this study, the effect of Reelin protein in combination with ECM hydrogel on invasiveness of the cell spheroids or organoids and their invasion length using Vimentin immunostaining and florescent microscopy respectively was studied.
Level of surface vimentin expression of the tumor cells was measured as an indication of invasiveness of cell spheroids or organoids with the ECM matrix.

The test system of assay [2] is TMZ resistant U251 cell spheroids or organoids. Kind of assay: Growth and invasion of TMZ resistant U251 spheroids in Collagen/HA ECM conditioned with Reelin. The settings on record: for average invasion length: Collagen/HA matrix. Here is the method:
(§2) To investigate and compare the invasive behavior of TMZ resistant GBM cancer cells with non-resistant cell spheroids or organoids through the ECM hydrogel, we used TMZ resistant and non-resistant U251 cell lines to make cell spheroids or organoids in the device 10 or the sector 20. The method of U251 cell spheroids or organoid formation was similar to that disclosed above.
as §1

The test system of assay [3] is TMZ non-resistant U251 cell spheroids or organoids. The assay is described as follows: Growth and invasion of TMZ non-resistant U251 spheroids in Collagen/HA ECM conditioned with Reelin. As to the method:
as §2, §1

[4] abbreviates: 10 nM Reelin, in response to TMZ.

“Reelin: recombinant Reelin protein used alone or in combination with ECM hydrogel”: the cell viability entry in assay [1] was “significant decrease in cell viability”. In addition, the “fluorescent intensity index of the vimentin surface marker” value in the assay with vimentin surface marker is “higher fluorescent intensity index”. For the same substance, the average invasion length entry is given as “around 400 μm” in assay [2] (10 nM Reelin) and “drops significantly” in assay [2] (100 nM Reelin). The “invasion length in Reelin conditioned matrix compared to normal matrix” value in assay [2] (setting [4]) is reported as “reverse”. In addition, the “inhibitory effect on growth (diameter)” value in assay [2] (higher concentrations of Reelin, day 3, compared with non-resistant) is “less”. In addition, the “invasion length in Reelin treated matrix compared to normal ECM matrix” value in assay [3] (setting [4]) was “higher invasion length”. Besides, the “size increase of spheroids over time (diameter)” value in assay [3] (each Reelin concentration, day 0 to 3, compared with resistant spheroids) was “more significant”. In addition, the “growth of cell spheroids or organoids (diameter)” value in assay [3] (higher concentrations of Reelin, day 3) is on record as “more inhibitory effect on the growth”. Moreover, the invasion length entry in assay [3] (increasing concentrations of Reelin, Collagen/HA matrix) is listed as “constantly increasing”.
